# Test results taken from patent US11643405B2, “Compound for treatment or prevention of liver diseases” (JIANGSU ATOM BIOSCIENCE AND PHARMACEUTICAL CO., LTD., priority 2018, dated 2023).
# Tested on: NASH mice
# Experiment: Efficacy on non-alcoholic steatohepatitis (NASH) mice fed high-fat feed
# Type: in vivo, C57BL/6 mice
# Conditions: for Liver coefficient (liver weight/body weight) / Liver weight: 28 days; for Liver weight: X ± SD
# Experimental: The test compounds were 4 and 7, respectively; the positive control silymarin was purchased from Shanghai Dibai Biotechnology Co., Ltd., with the batch number HH06.
# Low-dose group (35 mg/kg) solution preparation: the quantitative test compound was precisely weighed and a certain amount of normal saline was added to prepare the oral suspension solution with the concentration of 3.5 mg/mL. The administration volume was 10 mL/kg.
# High-dose group (70 mg/kg) solution preparation: the quantitative test compound was precisely weighed and a certain amount of normal saline was added to prepare the oral suspension solution with the concentration of 7.0 mg/mL. The administration volume was 10 mL/kg.
# High-fat feed: basic feed ingredients were corn, flour, imported fish meal, soybean meal, secondary meal, yeast meal, soybean oil, etc. The high-fat feed was prepared from 73.6% basic feed with 10% lard, 10% egg yolk powder, 5% sucrose, 1.2% cholesterol and 0.2% pig bile salt.
# Source, species, strain: C57BL/6 mice, provided by Beijing Vital River Laboratory Animal Technology Co., Ltd. Nanjing Branch (experimental animal production license: SCXK (Su) 2016-0003); experimental animal use license: SYXK (Jun) 2012-0049; age: 6-8 weeks at the beginning of dosing; weight: 18-22 g; gender: half male and half female.
# After 3 days of adaptive feeding with normal feed, the mice were randomly assigned according to body weight: 8 mice were fed with normal feed and set as normal control (NC); the rest of mice were fed with high-fat feed until the end of the experiment. The mice were weighed and recorded every 3 days. After feeding with high-fat diet for 56 days (8 weeks), blood samples were collected from the orbital vein of mice to detect the blood biochemical indexes to identify whether the modelling was successful.
# After successful modeling, the mice in the high-fat feed group were randomly divided into 6 groups with 8 animals in each group, including model group, compound 4 low dose group, compound 4 high dose group, compound 7 low dose group, compound 7 high dose group and silymarin high-dose group. The mice in each group were administered intragastrically according to the animal's body weight every day for 28 consecutive days (4 weeks). At the same time, during the administration period, the mice in each administration group and model group continued to be fed with high-fat feed until the end of the experiment. The normal control group was administered the corresponding volume of normal saline.
# On the last day of the experiment, the mice in each group were fasted for 8 hours, blood was taken from the orbit and the serum was separated and then stored at −20° C. After blood collection, the mice were sacrificed and the liver was quickly separated, weighed and stored in a refrigerator at −80° C. Serum samples and liver tissue samples were subjected to determinations of serum triglyceride (TG), serum total cholesterol (TC), serum high-density lipoprotein (HDL-C), serum low-density lipoprotein (LDL-C), serum alanine aminotransferase (ALT), serum aspartate aminotransferase (AST), serum tumor necrosis factor alpha (TNFα), liver triglycerides (TG), liver total cholesterol (TC), liver malondialdehyde (MDA), liver superoxide dismutase (SOD); in addition, some livers of mice in the blank control group, model group, compound 7 low-dose group and silymarin high-dose group were fixed in neutral formaldehyde fixed solution and then HE staining was performed to analyzed the pathological changes of liver tissue.
structure (smiles),measurement,setting,value
"COc1cc(C2Oc3cc(C4Oc5cc(O)cc(O)c5CC4O)cc(O)c3OC2CO)ccc1O (stereo not shown) [Compound 7, 2-{8-hydroxy-3-(4-hydroxy-3-methoxyphenyl)-2-hydroxymethyl-2,3-dihydrobenzo[b][1,4]dioxan-6-yl}chroman-3,5,7-triol]",TG,35 mg/kg/day,1.22 ± 0.06 mmol/L
same,Liver coefficient (liver weight/body weight),35 mg/kg/day intragastric,4.53 ± 0.38 %
same,Liver weight,35 mg/kg/day intragastric,1.40 ± 0.05 g
same,TG,70 mg/kg/day,1.25 ± 0.06 mmol/L
same,Liver coefficient (liver weight/body weight),70 mg/kg/day intragastric,4.51 ± 0.28 %
same,Liver weight,70 mg/kg/day intragastric,1.41 ± 0.02 g
same,Therapeutic effect on non-alcoholic steatohepatitis in mice (in words),35 and 70 mg/kg,significant therapeutic effects
same,MDA,"liver, 35 mg/kg/day",2.84 ± 0.24 nmol/mg
same,SOD,"liver, 35 mg/kg/day",18.54 ± 4.41 U/mg
same,TC,"liver, 35 mg/kg/day",1.53 ± 0.06 mmol/L
same,MDA,"liver, 70 mg/kg/day",2.79 ± 0.21 nmol/mg
same,SOD,"liver, 70 mg/kg/day",19.44 ± 3.11 U/mg
same,TC,"liver, 70 mg/kg/day",1.54 ± 0.09 mmol/L
same,Liver histopathology (HE staining),low-dose group (35 mg/kg),no lipid droplet vacuoles caused by steatosis
same,ALT,"serum, 35 mg/kg/day",63.03 ± 30.59 U/L
same,AST,"serum, 35 mg/kg/day",115.16 ± 13.42 U/L
same,HDL-C,"serum, 35 mg/kg/day",0.83 ± 0.35 mmol/L
same,LDL-C,"serum, 35 mg/kg/day",1.95 ± 0.50 mmol/L
same,TC,"serum, 35 mg/kg/day",2.59 ± 0.38 mmol/L
same,TG,"serum, 35 mg/kg/day",1.13 ± 0.06 mmol/L
same,TNF-α,"serum, 35 mg/kg/day",414.26 ± 11.57 ng/L
same,ALT,"serum, 70 mg/kg/day",75.75 ± 27.48 U/L
same,AST,"serum, 70 mg/kg/day",123.61 ± 5.41 U/L
same,HDL-C,"serum, 70 mg/kg/day",0.89 ± 0.46 mmol/L
same,LDL-C,"serum, 70 mg/kg/day",1.85 ± 0.37 mmol/L
same,TC,"serum, 70 mg/kg/day",2.63 ± 0.81 mmol/L
same,TG,"serum, 70 mg/kg/day",1.11 ± 0.07 mmol/L
same,TNF-α,"serum, 70 mg/kg/day",425.80 ± 9.77 ng/L
